Measurements reported in ChEMBL document CHEMBL1135772, “Conformationally constrained nicotines: polycyclic, bridged, and spiro-annulated analogues as novel ligands for the nicotinic acetylcholine receptor” (J Med Chem, 2002).

Target: Neuronal acetylcholine receptor; alpha4/beta2 (Rattus norvegicus, UniProt P09483+P12390)
Experiment: Displacement of [3H]cytisine from Nicotinic acetylcholine receptor alpha4-beta2 in rat forebrain

Neuronal acetylcholine receptor; alpha4/beta2, sequence (P09483 whole entry): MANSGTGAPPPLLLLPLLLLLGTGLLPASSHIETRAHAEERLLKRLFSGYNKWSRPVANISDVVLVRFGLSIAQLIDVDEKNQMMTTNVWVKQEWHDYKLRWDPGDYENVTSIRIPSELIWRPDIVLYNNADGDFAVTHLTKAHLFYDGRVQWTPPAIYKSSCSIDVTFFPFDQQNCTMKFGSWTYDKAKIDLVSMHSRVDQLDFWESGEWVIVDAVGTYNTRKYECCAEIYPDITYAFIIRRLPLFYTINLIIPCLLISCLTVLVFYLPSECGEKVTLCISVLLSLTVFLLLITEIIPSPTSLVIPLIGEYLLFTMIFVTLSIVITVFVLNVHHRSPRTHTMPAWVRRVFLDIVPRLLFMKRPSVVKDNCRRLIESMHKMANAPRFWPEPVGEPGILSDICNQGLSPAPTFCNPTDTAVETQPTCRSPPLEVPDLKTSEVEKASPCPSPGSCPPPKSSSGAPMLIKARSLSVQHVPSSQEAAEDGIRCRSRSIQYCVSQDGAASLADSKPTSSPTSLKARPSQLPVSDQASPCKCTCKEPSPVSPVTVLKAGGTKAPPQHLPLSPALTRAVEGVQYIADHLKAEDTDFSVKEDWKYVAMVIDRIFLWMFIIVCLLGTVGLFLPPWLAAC
Neuronal acetylcholine receptor; alpha4/beta2, sequence (P12390 whole entry): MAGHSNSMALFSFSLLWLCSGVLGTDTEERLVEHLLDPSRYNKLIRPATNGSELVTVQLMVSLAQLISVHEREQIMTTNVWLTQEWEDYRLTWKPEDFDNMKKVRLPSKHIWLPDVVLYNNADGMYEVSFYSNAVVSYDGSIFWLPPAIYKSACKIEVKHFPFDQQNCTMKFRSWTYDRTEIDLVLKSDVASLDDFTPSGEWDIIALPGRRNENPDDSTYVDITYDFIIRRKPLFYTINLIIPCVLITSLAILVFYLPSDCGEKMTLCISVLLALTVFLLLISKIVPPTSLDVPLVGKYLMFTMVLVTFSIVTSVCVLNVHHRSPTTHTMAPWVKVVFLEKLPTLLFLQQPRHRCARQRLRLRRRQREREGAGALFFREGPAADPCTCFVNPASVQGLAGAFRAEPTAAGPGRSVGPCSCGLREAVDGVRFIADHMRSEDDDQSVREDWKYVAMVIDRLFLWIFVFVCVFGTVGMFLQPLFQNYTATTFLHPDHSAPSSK

With `c1cc2c(cn1)[C@]1(CCCN1)CC2` the Ki was 533 nM.

With `CN1CCC[C@@]12CCc1ccncc12` the Ki was 148 nM.

With `CN1CCC[C@]12CCc1ccncc12` the Ki was 4.79 nM.

Molecule `c1cc2c(cn1)[C@@]1(CCCN1)CC2` has a Ki of 53.1 nM.

`c1cc2c(cn1)[C@H]1N3CCC1(CC3)C2` was tested, and the Ki was 962 nM.

With `c1cncc(C2C3CCN2CC3)c1` (single isomer, unassigned; (-)) the Ki was 1.89 nM.

Work on `c1cncc(C2C3CCN2CC3)c1` (stereo in doubt; 3 (+)) yielded a Ki of 2.32 nM.

Work on `c1cc2c(cn1)C1N3CCCC1(CC3)C2` (stereo in doubt; (+)4b) yielded a Ki of 318 nM.

Molecule `c1cc2c(cn1)C1N3CCCC1(CC3)C2` (stereo in doubt; (-)4b) has a Ki of 1040 nM.
